These results are taken from patent publication US20250002526A1, “PHARMACEUTICAL COMPOSITION HAVING ANTI-CANCER IMMUNOSTIMULATING EFFECT AND/OR IMMUNE CHECKPOINT INHIBITION POTENTIATING EFFECT” (KYUSHU UNIVERSITY, NATIONAL UNIVERSITY CORPORATION, priority 2021, published 2025).

Counter-ions that a name gives are not always drawn. Like-named read-outs stand apart in the source and are kept apart here.

The test system of the test is SULT2B1b-mediated CS production in E0771-SULT cells. As to the kind of experiment: CS production inhibitory effect in E0771-SULT cells (LC/MS/MS quantification of CS). The class given is cell-based, mouse. To be noted: for activity at 10 µM / activity at 20 µM / IC50: Mus musculus; for activity at 10 µM: relative to control (100%); for IC50: read-out: IC50 value (CS production). As to the method: CS in each human cancer tissue sample was quantified by a method described in NPL 2. To monitor the amounts of CS and/or oxysterol generated in E0771, 3LL, EG.7-OVA, and MC38 cells irrespective of the presence or absence of SULT2B1b expression, cells of each type were seeded in a 6-well plate at 5×10^5 cells/well, and the culture supernatant and cell pellet were collected after 24 hours. Subsequently, deuterium-labeled internal standard (IS) compounds (d7-CS [[…]] and d6-25-hydroxycholesterol) were added to fractions of the culture supernatant and cell pellet, each of which was subjected to extraction with 1 mL of extraction solvent (methanol/chloroform/water=5:2:2 [v/v/v]) to extract CS and oxysterol from the culture supernatant or cell pellet.
Each sample was vigorously mixed with a vortex for 1 minute, and then ultrasonicated for 5 minutes. Thereafter, the sample was centrifuged at 16,000×g and 4° C. for 5 minutes, and the supernatant (700 μl) was collected in a clean tube. Into this, 235 μl of chloroform and 155 μl of water were added and mixed, and the resultant was then subjected to vortexing followed by centrifugation to separate into an aqueous layer and an organic layer. Subsequently, 200 μl of the lowermost layer was dried under a nitrogen flow.
The dried sample was dissolved in 50 μl of methanol, and CS and oxysterol therein were quantified by liquid chromatography-tandem mass spectrometry (LC/MS/MS) with a triple quadrupole mass spectrometer (LCMS-8060; Shimadzu Corporation) equipped with an electrospray ionization (ESI) ion source in a multiple reaction monitoring (MRM) mode.
• Column: Inertsil ODS-4 (2.1×150 mm; particle size: 3 μm; GL Sciences Inc.) • Column temperature: 40° C. • Flow rate: 0.3 ml/min • Mobile phase: (A) water/acetonitrile (1:2, v/v) containing 5 mM ammonium acetate (B) Methanol/Isopropanol (1:19, v/v) Containing 5 mM Ammonium Acetate • Gradient curve: 0 min→22 min: (B) 0%→100%, • 22 min→27 min: (B) 100%, • 27 min→27.1 min: (B) 100%→0%, • 27.1 min→30 min: (B) 0% • Injection volume: 5 μl • Mass spectrometry mode: positive and negative ion modes • Electrospray voltage: 4 kV in positive ion mode, −3.5 kV in negative ion mode • Nebulizer gas flow rate: 3.0 L/min • Drying gas flow rate: 10.0 L/min • Desolvation temperature: 250° C. • Heat block temperature: 400° C. • Detector voltage: 2.16 kV • Used were MRM mode and 2 msec of dwell time per channel.
Absolute CS and oxysterol contents were calculated from calibration curves. MRM calibration curves were prepared with chromatographic peak areas for the analytes relative to peak areas for internal standards through three times of analysis for standard solutions.
The CS production effects of test compounds (compounds 1 to 19, 21, 23, 25, and 27 to 32) were evaluated with the mouse breast cancer cell line E0771 expressing SULT2B1b (E0771-SULT cells).
Specifically, as in the above description in experimental procedure (12), E0771-SULT cells were seeded in a 6-well plate at a proportion of 5×10^5 cells/well, and cultured in the presence or absence (control) of each test compound for 24 hours. After culturing, CS generated in E0771-SULT cells was quantified by LC/MS/MS according to the description in experimental procedure (12). The CS production capacity (% activity) of cells cultured in the presence of each test compound was evaluated from the percentage relative to the CS production level (control) (100%) in E0771-SULT cells cultured in the absence of the test compound, and the CS production inhibitory effect of the test compound was evaluated.

Where [1] appears, read: 24 h, read-out: CS production % activity at 10 μM, E0771-SULT cells, 24 hours, test compound 10 μM (Table 1).
[2] abbreviates: 24 h, read-out: CS production % activity at 10 μM, E0771-SULT cells, 24 hours, third concentration column of Table 1, head again printed 10 μM.
Where [3] appears, read: 24 h, read-out: CS production % activity at 20 μM, E0771-SULT cells, 24 hours, test compound 20 μM, relative to control without compound (100%).

As a reminder, the IC50 is the concentration at which inhibition is half-maximal. For the molecule `C[C@H](CCC(=O)O)[C@H]1CC[C@H]2[C@@H]3CC=C4C[C@@H](OC(=O)C(F)(F)F)CC[C@]4(C)[C@H]3CC[C@]12C` [Compound 2, (R)-4-((3S,8S,9S,10R,13R,14S,17R)-10,13-dimethyl-3-(2,2,2-trifluoroacetoxy)-2,3,4,7,8,9,10,11,12,13,14,15,16,17-tetradecahydro-1H-cyclopenta[a]phenanthren-17-yl)pentanoic acid], the IC50 was determined as 6 µM. The activity at 10 µM under setting [1] was found to be 34%. Besides, under setting [2], the activity at 10 µM was found to be 52.5%. Also, the activity at 20 µM under setting [3] came out at 36.8%.
Consider `COC(=O)CC[C@@H](C)[C@H]1CC[C@H]2[C@@H]3CC=C4C[C@@H](OC)CC[C@]4(C)[C@H]3CC[C@]12C` [Compound 5, methyl (R)-4-((3S,8S,9S,10R,13R,14S,17R)-3-methoxy-10,13-dimethyl-2,3,4,7,8,9,10,11,12,13,14,15,16,17-tetradecahydro-1H-cyclopenta[a]phenanthren-17-yl)pentanoate], for which the activity at 20 µM (24 h, E0771-SULT cells, 24 hours, test compound 20 μM, relative to control without compound (100%), read-out: CS production % activity at 20 μM) was found to be 92.3%.
On to `CC(CCC(=O)N1CCSCC1)C1CCC2C3CC=C4CC(O)CCC4(C)C3CCC12C` [Compound 9, (R)-4-((3S,8S,9S,10R,13R,14S,17R)-3-hydroxy-10,13-dimethyl-2,3,4,7,8,9,10,11,12,13,14,15,16,17-tetradecahydro-1H-cyclopenta[a]phenanthren-17-yl)-1-thiomorpholinopentan-1-one], for which the activity at 20 µM under setting [3] came to 87.2%.
On the same count and under the same terms, the same measure for `C[C@H](CCC(=O)N1CCOCC1)[C@H]1CC[C@H]2[C@@H]3CC=C4C[C@@H](O)CC[C@]4(C)[C@H]3CC[C@]12C` [Compound 11, (R)-4-((3S,8S,9S,10R,13R,14S,17R)-3-hydroxy-10,13-dimethyl-2,3,4,7,8,9,10,11,12,13,14,15,16,17-tetradecahydro-1H-cyclopenta[a]phenanthren-17-yl)-1-morpholinopentan-1-one]: 87.4%; for `C[C@H](CCC(=O)N1CCOCC1)[C@H]1CC[C@H]2[C@@H]3CC=C4C[C@H](n5cc(CN(C)C)nn5)CC[C@]4(C)[C@H]3CC[C@]12C` [Compound 13, (R)-4-((3R,8S,9S,10R,13R,14S,17R)-3-(4-((dimethylamino)methyl)-1H-1,2,3-triazol-1-yl)-10,13-dimethyl-2,3,4,7,8,9,10,11,12,13,14,15,16,17-tetradecahydro-1H-cyclopenta[a]phenanthren-17-yl)-1-morpholinopentan-1-one]: 65.8%.
Turning to `C[C@H](CCC(=O)O)[C@H]1CC[C@H]2[C@@H]3CC[C@@H]4C[C@H](O)CC[C@]4(C)[C@H]3CC[C@]12C` [Compound 14, (4R)-4-[(3R,5R,8R,9S,10S,13R,14S,17R)-3-hydroxy-10,13-dimethyl-2,3,4,5,6,7,8,9,11,12,14,15,16,17-tetradecahydro-1H-cyclopenta[a]phenanthren-17-yl]pentanoic acid], the activity at 20 µM (E0771-SULT cells, 24 hours, test compound 20 μM, relative to control without compound (100%), read-out: CS production % activity at 20 μM) was 31.5%. Also, the activity at 10 µM (E0771-SULT cells, 24 hours, third concentration column of Table 1, head again printed 10 μM, read-out: CS production % activity at 10 μM) worked out at 62%. Moreover, for the setting “E0771-SULT cells”, the IC50 was determined as 7.2 µM.
Turning to `CC(=O)C1=CC[C@H]2[C@@H]3CC=C4CC(OC(=O)CCN5CCOCC5)CC[C@]4(C)[C@H]3CC[C@]12C` (stereo partly drawn) [Compound 15, (8R,9S,10R,13S,14S)-17-acetyl-10,13-dimethyl-2,3,4,7,8,9,10,11,12,13,14,15-dodecahydro-1H-cyclopenta[a]phenanthren-3-yl3-morpholinopropanoate], the IC50 was determined as 7.8 µM. Also, under setting [1], the activity at 10 µM was determined as 40.9%. Further, the activity at 10 µM under setting [2] turned out to be 63%. Further, under setting [3], the activity at 20 µM came to 38.9%.
On the same counts, the results for `CC(=O)C1=CC[C@H]2[C@@H]3CC[C@H]4C[C@H](OC(=O)CCN5CCOCC5)CC[C@]4(C)[C@H]3CC[C@]12C` [Compound 16, (3R,5S,8R,9S,10S,13S,14S)-17-acetyl-10,13-dimethyl-2,3,4,5,6,7,8,9,10,11,12,13,14,15-tetradecahydro-1H-cyclopenta[a]phenanthren-3-yl3-morpholinopropanoate] are 9.6 µM, 49.9%, 55.7% and 42.3%.
As for `COC(=O)C1CCCN1C(=O)CCC(=O)OCC(=O)C1(OC(C)=O)CCC2C3CCC4=CC(=O)CCC4(C)C3CCC21C` [Compound 18, methyl (4-(2-8((8R,9S,10R,13S,14S,17R)-17-acetoxy-10,13-dimethyl-3-oxo-2,3,6,7,8,9,10,11,12,13,14,15,16,17-tetradecahydro-1H-cyclopenta[a]phenanthren-17-yl)-2-oxoethoxy)-4-oxobutanoyl)-L-prolinate], the half-inhibitory concentration (IC50) is 16 µM. The activity at 10 µM under setting [1] is 60.6%. The activity at 10 µM under setting [2] is 71.7%. Besides, the activity at 20 µM under setting [3] stood at 54.8%.
As for `C#CCOCCNC(=O)CC[C@@H](C)[C@H]1CC[C@H]2[C@@H]3CC=C4C[C@@H](OS(=O)(=O)O)CC[C@]4(C)[C@H]3CC[C@]12C` [Compound 21, (3S,8S,9S,10R,13R,14S,17R)-10,13-dimethyl-17-((R)-5-oxo-5-((2-(prop-2-yn-1-yloxy)ethyl)amino)pentan-2-yl)-2,3,4,7,8,9,10,11,12,13,14,15,16,17-tetradecahydro-1H-cyclopenta[a]phenanthren-3-yl sulfate], the activity at 20 µM under setting [3] is 85.7%.
Same read-out and setting: the same measure for `C#CCOCCOCCNC(=O)CC[C@@H](C)[C@H]1CC[C@H]2[C@@H]3CC=C4C[C@@H](OS(=O)(=O)O)CC[C@]4(C)[C@H]3CC[C@]12C` [Compound 23, (3S,8S,9S,10R,13R,14S,17R)-10,13-dimethyl-17-((R)-5-oxo-5-((2-(2-(prop-2-yn-1-yloxy)ethoxy)ethyl)amino)pentan-2-yl)-2,3,4,7,8,9,10,11,12,13,14,15,16,17-tetradecahydro-1H-cyclopenta[a]phenanthren-3-yl sulfate]: 70.1%; for `C#CCOCCOCCOCCOCCNC(=O)CC[C@@H](C)[C@H]1CC[C@H]2[C@@H]3CC=C4C[C@@H](OS(=O)(=O)O)CC[C@]4(C)[C@H]3CC[C@]12C` [Compound 25, (3S,8S,9S,10R,13R,14S,17R)-10,13-dimethyl-17-((R)-17-oxo-4,7,10,13-tetraoxa-16-azahenicos-1-yn-20-yl)-2,3,4,7,8,9,10,11,12,13,14,15,16,17-tetradecahydro-1H-cyclopenta[a]phenanthren-3-yl sulfate]: 60.1%.
Consider `C#CCOCCOCCOCCOCCOCCOCCNC(=O)CC[C@@H](C)[C@H]1CC[C@H]2[C@@H]3CC=C4C[C@@H](OS(=O)(=O)O)CC[C@]4(C)[C@H]3CC[C@]12C` [Compound 27, (3S,8S,9S,10R,13R,14S,17R)-10,13-dimethyl-17-((R)-23-oxa-4,7,10,13,16,19-hexaoxa-22-azaheptacos-1-yn-26-yl)-2,3,4,7,8,9,10,11,12,13,14,15,16,17-tetradecahydro-1H-cyclopenta[a]phenanthren-3-yl sulfate], for which, where the note is “E0771-SULT cells, 24 hours, test compound 20 μM, relative to control without compound (100%)”, the “CS production % activity at 20 μM” value amounted to 59.0%.
